Publication PMC12627933, “A First-In-Human Study of the SUMOylation Inhibitor Subasumstat in Patients with Advanced/Metastatic Solid Tumors or Relapsed/Refractory Hematologic Malignancies” (Cancer Research Communications, 2025)

Assay: Safety: treatment-emergent adverse events (NCI CTCAE v5.0; CRS per ASTCT), phase I/II study NCT03648372
Assay type: in vivo
Protocol: This study comprised two parts: a phase I dose escalation and a phase II dose expansion (Fig. 1). In the dose-escalation phase, patients were enrolled to receive subasumstat intravenously as a 1-hour (±10 minutes) infusion on days 1, 4, 8, and 11 of a 21-day cycle (biweekly schedule). […] Dose escalation was based on cohort with an adaptive design using Bayesian logistic regression modeling with overdose control. The starting dose of subasumstat was based on Good Laboratory Practice animal toxicity studies and supported by the estimation of a minimum anticipated biologically effective level. A detailed description of dose-limiting toxicities (DLT) is presented in the Supplementary Methods.
The phase II dose-expansion portion enrolled patients to receive the recommended phase II dose (RP2D) determined in phase I, with each cohort assessed separately using an adaptive two-stage design for a single proportion (see Supplementary Methods). For stage 1, each cohort was analyzed when a prespecified number of patients were enrolled and had the potential to have at least one posttreatment scan [i.e., after the first disease assessment, 2 months from cycle 1 day 1 (C1D1)]. If the prespecified minimal response rate was not achieved in the first stage for a given cohort, that cohort would be closed to enrollment. […] The final analysis of the primary endpoints for each cohort would take place when all ongoing patients had the opportunity to complete the 6-month disease assessment. Across both phases, patients received subasumstat for up to 1 year or until confirmed disease progression, unacceptable toxicity, if any withdrawal criterion from the study was met, or if discontinuation of subasumstat occurred.
The occurrence of DLTs was assessed during cycle 1 (DLTs are described in the Supplementary Methods). Treatment-emergent adverse events (TEAE) were graded according to NCI Common Terminology Criteria for Adverse Events version 5.0, except for cytokine release syndrome (CRS), which was graded according to the American Society for Transplantation and Cellular Therapy Consensus Grading for CRS ([20]).
It was anticipated that approximately 70 DLT-evaluable patients would be enrolled for dose escalation. The safety analysis set included all patients who received at least one dose, even if incomplete, of subasumstat. […] The overall response rate (ORR) was defined as the proportion of patients who achieved complete response and partial response (PR) during the study. The disease control rate (DCR) was defined as the proportion of patients who achieved […] as per RECIST v1.1 for solid tumors or Lugano classification for lymphomas. […] Progression-free survival was summarized descriptively using the Kaplan–Meier method.

With `Cc1sc(C(=O)c2cncnc2N[C@@H]2C[C@H](COS(N)(=O)=O)[C@@H](O)C2)cc1[C@@H]1NCCc2ccc(Cl)cc21` [subasumstat] the “TEAE: Dyspnea” value (Phase I (n = 84)) was 22 (26.2) n (%), the “TEAE: Fatigue” value (Phase I (n = 84)) was 42 (50.0) n (%) and the “TEAE: Headache” value (Phase I (n = 84)) was 30 (35.7) n (%). The “TEAE: Hypophosphatemia” value (Phase I (n = 84)) was 11 (13.1) n (%), the “TEAE: Insomnia” value (Phase I (n = 84)) was 11 (13.1) n (%) and the “TEAE: Nausea” value (Phase I (n = 84)) was 41 (48.8) n (%). The “TEAE: Peripheral edema” value (Phase I (n = 84)) was 15 (17.9) n (%), the “TEAE: Pleural effusion” value (Phase I (n = 84)) was 9 (10.7) n (%) and the “TEAE: Pyrexia” value (Phase I (n = 84)) was 28 (33.3) n (%). For the same molecule, the “TEAE: Stomatitis” value (Phase I (n = 84)) was 8 (9.5) n (%), the “TEAE: Vomiting” value (Phase I (n = 84)) was 27 (32.1) n (%) and the TEAEs (Phase I (n = 84)) was 81 (96.4) n (%). For the same molecule, the “TEAEs leading to discontinuation” value (Phase I (n = 84)) was 8 (9.5) n (%), the “TEAEs leading to discontinuation related to subasumstat” value (Phase I (n = 84)) was 3 (3.6) n (%) and the “TEAEs related to subasumstat” value (Phase I (n = 84)) was 65 (77.4) n (%). For the same molecule, the “AESI (adverse event of special interest)” value (Phase II (n = 25)) was 3 (12.0) n (%), the “AESI related to subasumstat” value (Phase II (n = 25)) was 3 (12.0) n (%) and the “AESI: CRS” value (Phase II (n = 25)) was 3 (12.0) n (%). The “Grade ≥3 TEAE: Abdominal pain” value (Phase II (n = 25)) was 2 (8.0) n (%), the “Grade ≥3 TEAE: Acute kidney injury” value (Phase II (n = 25)) was 2 (8.0) n (%) and the “Grade ≥3 TEAE: Anemia” value (Phase II (n = 25)) was 5 (20.0) n (%). For the same molecule, the “Grade ≥3 TEAE: Aspartate aminotransferase increased” value (Phase II (n = 25)) was 0 n (%), the “Grade ≥3 TEAE: Blood bilirubin increased” value (Phase II (n = 25)) was 0 n (%) and the “Grade ≥3 TEAE: Dyspnea” value (Phase II (n = 25)) was 0 n (%). For the same molecule, the “Grade ≥3 TEAE: Fatigue” value (Phase II (n = 25)) was 0 n (%), the “Grade ≥3 TEAE: Hyperbilirubinemia” value (Phase II (n = 25)) was 2 (8.0) n (%) and the “Grade ≥3 TEAE: Hypertension” value (Phase II (n = 25)) was 1 (4.0) n (%). For the same molecule, the “Grade ≥3 TEAE: Hypokalemia” value (Phase II (n = 25)) was 0 n (%), the “Grade ≥3 TEAE: Hypomagnesemia” value (Phase II (n = 25)) was 0 n (%) and the “Grade ≥3 TEAE: Hypophosphatemia” value (Phase II (n = 25)) was 0 n (%). The “Grade ≥3 TEAE: Lymphocyte count decreased” value (Phase II (n = 25)) was 0 n (%), the “Grade ≥3 TEAE: Lymphopenia” value (Phase II (n = 25)) was 1 (4.0) n (%) and the “Grade ≥3 TEAE: Muscular weakness” value (Phase II (n = 25)) was 2 (8.0) n (%). For the same molecule, the “Grade ≥3 TEAE: Nausea” value (Phase II (n = 25)) was 0 n (%), the “Grade ≥3 TEAE: Neutropenia” value (Phase II (n = 25)) was 4 (16.0) n (%) and the “Grade ≥3 TEAE: Platelet count increased” value (Phase II (n = 25)) was 2 (8.0) n (%). The “Grade ≥3 TEAE: Pleural effusion” value (Phase II (n = 25)) was 0 n (%), the “Grade ≥3 TEAE: Pneumonia” value (Phase II (n = 25)) was 1 (4.0) n (%) and the “Grade ≥3 TEAE: Pneumonitis” value (Phase II (n = 25)) was 0 n (%). The “Grade ≥3 TEAE: Pyrexia” value (Phase II (n = 25)) was 0 n (%), the “Grade ≥3 TEAE: Small intestinal obstruction” value (Phase II (n = 25)) was 0 n (%) and the “Grade ≥3 TEAE: Thrombocytopenia” value (Phase II (n = 25)) was 1 (4.0) n (%). For the same molecule, the “Grade ≥3 TEAE: Vomiting” value (Phase II (n = 25)) was 0 n (%), the “Grade ≥3 TEAEs” value (Phase II (n = 25)) was 18 (72.0) n (%) and the “Grade ≥3 TEAEs related to subasumstat” value (Phase II (n = 25)) was 11 (44.0) n (%). The “Grade ≥3 subasumstat-related TEAE: Anemia” value (Phase II (n = 25)) was 3 (12.0) n (%), the “Grade ≥3 subasumstat-related TEAE: Aspartate aminotransferase increased” value (Phase II (n = 25)) was 0 n (%) and the “Grade ≥3 subasumstat-related TEAE: Hypokalemia” value (Phase II (n = 25)) was 0 n (%). The “Grade ≥3 subasumstat-related TEAE: Lymphocyte count decreased” value (Phase II (n = 25)) was 0 n (%), the “Grade ≥3 subasumstat-related TEAE: Muscular weakness” value (Phase II (n = 25)) was 2 (8.0) n (%) and the “Grade ≥3 subasumstat-related TEAE: Neutropenia” value (Phase II (n = 25)) was 4 (16.0) n (%). For the same molecule, the “Grade ≥3 subasumstat-related TEAE: Platelet count increased” value (Phase II (n = 25)) was 2 (8.0) n (%), the “Grade ≥3 subasumstat-related TEAE: Pneumonitis” value (Phase II (n = 25)) was 0 n (%) and the “Grade ≥3 subasumstat-related TEAE: Thrombocytopenia” value (Phase II (n = 25)) was 1 (4.0) n (%). For the same molecule, the On-study deaths (Phase II (n = 25)) was 2 (8.0) n (%), the “Patients with at least one grade ≥3 TEAE” value (Phase II (n = 25)) was 18 (72.0) n (%) and the “Patients with at least one grade ≥3 subasumstat-related TEAE” value (Phase II (n = 25)) was 11 (44.0) n (%). For the same molecule, the Serious adverse events (Phase II (n = 25)) was 11 (44.0) n (%), the “Serious adverse events related to subasumstat” value (Phase II (n = 25)) was 5 (20.0) n (%) and the “Subasumstat-related TEAE: Anemia” value (Phase II (n = 25)) was 4 (16.0) n (%). The “Subasumstat-related TEAE: CRS” value (Phase II (n = 25)) was 3 (12.0) n (%), the “Subasumstat-related TEAE: Chills” value (Phase II (n = 25)) was 6 (24.0) n (%) and the “Subasumstat-related TEAE: Decreased appetite” value (Phase II (n = 25)) was 3 (12.0) n (%). For the same molecule, the “Subasumstat-related TEAE: Diarrhea” value (Phase II (n = 25)) was 6 (24.0) n (%), the “Subasumstat-related TEAE: Dyspnea” value (Phase II (n = 25)) was 2 (8.0) n (%) and the “Subasumstat-related TEAE: Fatigue” value (Phase II (n = 25)) was 7 (28.0) n (%). For the same molecule, the “Subasumstat-related TEAE: Headache” value (Phase II (n = 25)) was 5 (20.0) n (%), the “Subasumstat-related TEAE: Hypokalemia” value (Phase II (n = 25)) was 0 n (%) and the “Subasumstat-related TEAE: IRR” value (Phase II (n = 25)) was 1 (4.0) n (%). The “Subasumstat-related TEAE: Myalgia” value (Phase II (n = 25)) was 2 (8.0) n (%).
